A word on the melting point: it is the temperature, or range, at which the solid turns liquid.

Take `CC(C)(C)OC(=O)N1CCC(c2ccc(C(=O)N3CCc4cc(S(C)(=O)=O)ccc43)nc2)CC1`: the melting point is 202 to 205 °C.
For `CCCCCCCCNC(=O)c1cnc2cccc(C)n2c1=O` the value was 108 to 110 °C; for `Cc1cc(C(N)=O)ccc1N=C1SC[C@H](CC(C)C)N1CC(C)C`, 130 to 131 °C; for `CCOC(=O)c1cnc2sc(S(=O)(=O)Cc3ccccc3)nn2c1=O`, 200 to 203 °C.
For `COc1cccc(CN2C(=O)CCc3cc(O)c(OC)cc32)c1` the value was 137 to 138 °C; for `CC(=O)c1c(C)[nH]c(-c2ccncc2)c1-c1ccncc1`, 236 to 239 °C.
As to `CNC1Cc2ccc(C(=O)Cn3cnc4cc(-c5ccc(Cl)cc5)sc4c3=O)cc2C1` (stereo not drawn), the melting point fell in the range of 226 to 229 °C.
Next, `COc1ccc2c(Cl)cc3nc(C(=O)O)cn3c2c1`: 277 to 278 °C.
Next, `CCCN(CCC)C(N)=C(C#N)C(N)=S`: 141 to 144 °C; `Cc1ccc(-c2c(Cl)nc(-c3cccs3)nc2NS(=O)(=O)c2ccc(C(C)(C)C)cc2)cc1`: above 300 °C; `CN(C)c1cc(Oc2cccc(C(F)(F)F)c2)nc(C(=O)NN=CC(F)(F)C(F)(F)F)c1`: 108 to 109 °C.
For `COC1CC(NC(=O)C(F)(F)F)C(OCc2ccccc2)C(C)O1` (stereo not drawn) the value was 159 to 160 °C; for `O=C(Nc1cccc2ccccc12)NC(Cc1ccc(C(F)(F)F)cc1)C(O)c1ccc(F)cc1` (stereo not drawn), 222 to 223 °C; for `CC(=O)NCC1CN(c2ccc(-c3cccc(CN)c3)c(F)c2)C(=O)O1` (stereo not drawn), 170 °C.
With `CN1C(=O)C(=Cc2cc(C(C)(C)C)c(O)c(C(C)(C)C)c2)SC1=S`, the melting point was above 230 °C.
For `CC(=O)OC1(C(C)CN(C)C)CCCCC1c1ccccc1` (single isomer, unassigned; (-)) the value was 63 to 66 °C; for `Cc1nnc(-c2ccc3occ(-c4cccc(OCc5ccccc5)c4)c3c2)o1`, 96 to 97 °C; for `Clc1ccc(OCc2ccnc3ncnn23)cc1`, 193 to 194 °C.
Next, `COc1cc(Nc2ccnc(Nc3cc(OC)c(OC)c(OC)c3)n2)cc(OC)c1`: 180 °C.
In the case of `C[Si](C)(C)C#Cc1ccc2c(C(=O)Nc3cccc(C(F)(F)F)c3)cccc2c1`, the melting point fell in the range of 134 to 136 °C.
With `COC(=O)CN1CCC(C(=O)Oc2ccc([N+](=O)[O-])cc2)CC1`, the melting point was 109 to 111 °C.
For `CC(C)c1n[nH]c2c(Cl)nc(Cl)nc12` the value was above 250 °C; for `CN(C)C=Nc1c(Cl)cc(N=Cc2ccc(N(C)C)c(Br)c2)cc1Cl`, 140 to 141 °C.
Next, `Cc1cc(-c2cc(=O)c3ccccc3o2)cc(C)c1O`: 255 to 256 °C; `CCCc1c(COc2ccc(Cc3nnn(CC(=O)O)n3)cc2)ccc(C(C)=O)c1O`: 87 to 90 °C; `CC(=O)Oc1ccccc1C(=O)NC(S(=O)C(C)C)C(Cl)(Cl)Cl` (stereo not drawn): 90 to 92 °C.
Next, `O=C1N[C@@H](c2ccccc2)[C@H]1O`: 175 to 180 °C.
As to `Cc1cc2c(-c3cccc(/C=C/C=O)c3)c(CC(=O)Nc3ccc(F)cc3C(F)(F)F)c(=O)oc2cc1Cl`, the melting point lay in the range of 232 to 235 °C.
For `CCOC(=O)c1sc(Cl)nc1-c1ccc([N+](=O)[O-])cc1` the value was 146 to 148 °C; for `CC(C)(C)C(=O)OCc1cc2c(OCC3CO3)cccc2[nH]1` (stereo not drawn), 129 to 131 °C; for `COC1=C(OC)C(=O)C(CCCCCCCCCCCCCO)=C(C)C1=O`, 65 to 66 °C.
For `CC(C)S(=O)(=O)c1ccc(Oc2ccc(Cl)c(Cl)c2)nc1` the value was 91 to 92 °C; for `CCCNc1cc(Nc2ccc(OC)cc2)ncn1`, 194 to 196 °C.
`COc1ccc2c3c(cn2S(=O)(=O)c2ccc(C)cc2)CC(N=[N+]=[N-])C(=O)c13` (stereo not drawn): the melting point lay within 147 to 148 °C.
For `CN(C(=O)COc1nc(F)ns1)c1ccccc1` the value was 82 °C; for `N#Cc1cnc2cc(-c3csc(CN4CCOCC4)c3)ccc2c1Nc1ccc(Cc2ccccc2)cc1`, 228 to 230 °C; for `CCCCCCCCC(=O)NCc1ccc(Oc2ccccc2[N+](=O)[O-])c(OC)c1`, 93 to 93.5 °C.
As for `O=C1NC(=C2CCCCC2)Sc2ccccc21`, the melting point lay in the range of 146 to 147 °C.
The molecule `CCOc1cc(COc2nn(Cc3ccccc3)cc2C=O)ccc1OCc1nc(-c2ccco2)oc1C` came in with a melting point of 144 to 145 °C.
Next, `C(=CCN(C1CCCCC1)C1CCCCC1)CN(C1CCCCC1)C1CCCCC1`: 136 to 138 °C.
On to `CCCn1c(=O)c2c(nn3cc[nH]c23)n(Cc2ccccc2)c1=O`, for which the melting point fell in the range of 290 to 292 °C.
Next, `CC(=O)OC1CSC(Oc2cccc3cc(C(C)=O)oc23)C(OC(C)=O)C1OC(C)=O` (stereo not drawn): 208 to 209 °C.
For `N#Cc1cc(F)c(N=C=S)cc1O` the value was 178 to 180 °C; for `CC(=O)Oc1ccc(C(=O)c2cccc(OC(C)=O)c2)cc1`, 81 to 83 °C.
Next, `C#CCNC(=O)N1CC(c2ccc(C(C)(C)C)cc2)C1`: 141 °C.
Molecule `CCCOc1ccc(-c2ccc(Cl)nn2)cc1OC` returned a melting point of 132 °C.
For `N#CCCCCn1ccc(NC(=S)NCC(F)(F)F)n1` the value was 96 to 98 °C; for `CCCCCCCCCCC#Cc1c2ccccc2c2ccc3c(C#CCCCCCCCCCC)c4ccccc4c4ccc1c2c34`, 129 to 130 °C; for `COc1ccc(CCNc2nc(Cl)nc(NCCc3ccc(OC)c(OC)c3)n2)cc1OC`, 186 °C.
For `CCOC(=O)c1cc(=O)n(Cc2ccc(S(=O)(=O)O)cc2S(=O)(=O)O)[nH]1` the value was above 300 °C; for `O=C1N(Cc2ccc(C(F)(F)F)o2)c2cccc(Br)c2C12COc1cc3c(cc12)CCO3` (stereo not drawn), 165 to 167 °C; for `CCOC(=O)NN=Cc1c[nH]c(-c2ccccc2)n1`, 196 to 200 °C.
Next, `FC(F)c1nc2ccccc2n1-c1nc(Oc2cccnc2)nc(N2CCOCC2)n1`: 229 to 231 °C.
In turn, `CCCCOc1ccc(C(C)NC(=O)NO)cc1` (stereo not drawn) had a melting point of 125 to 127 °C.
For `C=CC(NC(C)=O)C(=O)NCc1ccccc1` (stereo not drawn) the value was 136 to 138 °C; for `CN(C)C=C(C=O)c1ccc(Cl)cc1`, 117 to 120 °C.
In turn, `Cc1cccc(C)c1NC(=O)NCCCNC(C)C` showed a melting point of 152 to 154 °C.
For `Cn1ncc2c(c1=O)SCCNC2Cc1ccc(Cl)cc1` (stereo not drawn) the value was 106 to 109 °C; for `Cc1cc(C=NN2CCNC2=O)no1`, 195 to 197 °C; for `COc1ccc(-c2nc3cnccc3[nH]2)c(O)c1`, 255 °C.
Next, `COc1cc2c(cc1-c1cccnc1)-c1c(Cl)c3c(n1CC2)C(=O)N(C(C)(C)C)CCCC3`: 190 to 192 °C; `FC(F)(F)c1cc2c(cc1Cl)C(Cl)Cc1ccccc1S2` (stereo not drawn): 100 to 102 °C; `CCOc1ccc(C2=NN(C3CCN(C(C)=O)CC3)C(=O)[C@@H]3CC=CC[C@H]23)cc1OCC`: 148 to 150 °C.
For `CCn1cc(CN(C(=O)C2CCc3cc(OC)ccc32)c2ccc(C(C)C)cc2)cn1` (stereo not drawn) the value was 115 to 116 °C; for `CCCNC(=O)NS(=O)(=O)c1cc2c(cc1OC)OCCC2CNC(=O)c1cc(Cl)ccc1OC` (stereo not drawn), 159 to 160 °C; for `Nc1snc2nc(N3CCCC3)sc12`, 262 to 264 °C.
`O=c1[nH]nc2c3cc(F)ccc3[nH]c(=O)n12` yielded a melting point above 350 °C.
For `Cc1ccccc1-c1nc2ccc(O)cc2o1` the value was 134 to 138 °C; for `N#Cc1cccc(Cc2ccccc2C=NC(c2ccccc2)c2ccccc2)c1`, 113 to 115 °C; for `CCCCc1nn(-c2cc(NC(=O)CC)ccc2Cl)c(=O)n1Cc1ccc(-c2cc(CC)ccc2S(=O)(=O)NC(=O)c2ccccc2Cl)cc1`, 144 to 146 °C.
In turn, `Cc1cc(NC(=O)NCc2ccc3c(c2)CN(C2CCC(=O)NC2=O)C3=O)ccc1O` (stereo not drawn) returned a melting point of 210 to 212 °C.
For `CC(=O)O[C@@H]1[C@H](OC(C)=O)[C@@H](C)O[C@H]1n1c(Br)nc2c(Cl)c(Cl)c(Cl)cc21` the value was 160 to 162 °C; for `CC(C)(C)OC(=O)c1nn(-c2ccc(Cl)cc2Cl)c(-c2ccc(Cl)cc2)c1CBr`, 139 °C; for `CCC(=O)NCCC1CN(C=O)c2ccc3c(c21)CCO3` (stereo not drawn), 139 to 141 °C.
For the molecule `c1ccc(CN(c2ccccc2)c2cccc3ccccc23)cc1`, the melting point was in the range of 120 to 123 °C.
Next, `CCc1ccc2oc(C(=O)Nc3ccc(-c4ccc(S(=O)(=O)NC(C(=O)O)C(C)C)cc4)cc3)c(C)c2c1O` (stereo not drawn): 122 to 125 °C; `CC#CC1(O)CCC2C3CCC4=CC(=O)CCC4C3C(C(F)F)CC21C` (stereo not drawn): 191 to 193 °C.
Next, `CCCCCCCCCc1ccc(C(=O)[C@@H]2CCCC[C@H]2C(=O)O)cc1` (relative stereo): 84 to 86 °C; `COC(=O)c1ccc(-c2nc(-c3ccc4c(c3)C(C)(C)CCC4(C)C)cs2)cc1`: 138 to 140 °C; `CNC(=O)c1cc2c(Oc3ccc(Br)cc3)cncc2s1`: 78 to 80 °C.
In the case of `CC(C)NC(=O)C(C)(C)C`, the melting point was 106 to 108 °C.
For `CN(C)C(=O)c1ccccc1I` the value was 33 to 36 °C.
Next, `CC(=O)OC1CSC(Oc2cc(F)cnc2C#N)C(OC(C)=O)C1OC(C)=O` (stereo not drawn): 150 °C; `CCOC(=O)c1ccc(OCCC2CCN(c3ccc(C)nn3)CC2)cc1`: 130 °C; `CC(=O)OCC1OC(OCCBr)C(OC(C)=O)C(OC(C)=O)C1OC(C)=O` (stereo not drawn): 116 to 117 °C.
Next, `C=CCN(CC=C)Cc1noc(-c2ncn3c2[C@@H]2CCN2C(=O)c2c-3ccc(F)c2Cl)n1`: 127 °C.
In the case of `N#CN=C(Nc1cnc(Cl)c(N)c1)NC1(c2ccccc2)CCC1`, the melting point was 220 to 221 °C.
Turning to `CC1C(c2ccc(Cl)cc2)SC(=O)N1C(=O)NN1CCCCC1` (stereo not drawn), the melting point fell in the range of 92 to 93 °C.

Values taken from a melting point compilation (Tetko et al.; mined from patent text by program, amines drawn as free bases though some values may be those of a salt).
